47 molecules from patent US10703746B2, “Mutant IDH1 inhibitors useful for treating cancer” (THE UNITED STATES OF AMERICA, AS REPRESENTED BY THE …, priority 2014, dated 2020) can be followed below.

For one experiment, the target named is IDH1 R132H (Homo sapiens, UniProt O75874, R132H). The experiment in a line: IDH1 R132H enzymatic assay (NADPH depletion coupled to diaphorase/resazurin). The class given is biochemical. Particulars: IDH1 R132H enzymatic inhibition, IC50 class. Background: Resazurin is reduced to fluorescent resorufin, in cell work by metabolically active cells.
Another experiment deals with IDH1 R132C (Homo sapiens, UniProt O75874, R132C). The experiment can be described thus: IDH1 R132C enzymatic assay (NADPH depletion coupled to diaphorase/resazurin). The class given is biochemical. Particulars: IDH1 R132C enzymatic inhibition, IC50 class. Put shortly: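 NADPH depletion, read via diaphorase/resazurin coupling, after adding substrate at 0.6 mM α-KG and 0.012 mM NADPH. Beforehand, 0.00032 mg/mL enzyme sat with compound 30 min at room temperature in pH 6.5 potassium phosphate buffer with MgCl2, glycerol and BSA.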
Chain of IDH1 R132C (O75874 whole entry R132C): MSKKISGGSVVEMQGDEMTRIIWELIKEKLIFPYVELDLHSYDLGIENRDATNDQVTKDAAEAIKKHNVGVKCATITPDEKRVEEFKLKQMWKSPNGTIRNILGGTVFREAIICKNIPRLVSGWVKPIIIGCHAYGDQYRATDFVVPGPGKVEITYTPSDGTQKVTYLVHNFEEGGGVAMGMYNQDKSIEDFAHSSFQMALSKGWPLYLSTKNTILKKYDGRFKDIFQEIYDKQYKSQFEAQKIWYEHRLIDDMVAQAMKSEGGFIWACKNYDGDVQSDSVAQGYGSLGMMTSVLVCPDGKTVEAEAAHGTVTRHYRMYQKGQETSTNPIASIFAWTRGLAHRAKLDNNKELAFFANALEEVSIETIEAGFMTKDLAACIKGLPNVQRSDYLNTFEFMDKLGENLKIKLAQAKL

Chain of IDH1 R132H (O75874 whole entry R132H): as the sequence (O75874 whole entry R132C) above, with C132H counted along it

The term IC50 denotes the concentration that gives 50% inhibition. Lower therefore signals greater potency in that assay. `COc1ccc(OC)c(-n2c3c(cc(-c4nnn(-c5ccc(Cl)cc5)n4)c2=O)C(=O)CC(C)(C)C3)c1` [Compound 287]: the IC50 against IDH1 R132H is more than 20000 nM; against IDH1 R132C, 1000 to 5000 nM.
Turning to `Cc1c(N)cccc1-n1c2c(cc(-c3nc(-c4ccc(Cl)cc4)cs3)c1=O)C(=O)CC(C)(C)C2` [Compound 288], the IC50 against IDH1 R132H and against IDH1 R132C was 1000 to 5000 nM each time.
For `COc1ccc(OC)c(-n2c(=O)c(-c3nc(-c4ccc(Cl)cc4)cs3)cc3c(OC)cncc32)c1` [Compound 289], the IC50 is more than 20000 nM at IDH1 R132H and 5000 to 20000 nM against IDH1 R132C.
The matching figures for `COc1ccc(OC)c(-n2c3c(cc(-c4c[nH]c(-c5ccccc5)n4)c2=O)C(=O)CC(C)(C)C3)c1` [Compound 290]: 1000 to 5000 nM and 1000 to 5000 nM.
For `COc1ccc(OC)c(-n2c3c(cc(-c4nc(-c5ccc(Cl)cc5)c[nH]4)c2=O)C(=O)CC(C)(C)C3)c1` [Compound 291] the same measures were 1000 to 5000 nM and 1000 to 5000 nM.
With `CCc1cccc(CC)c1-n1c2c(cc(-c3nc(-c4ccc(C)cn4)c(C)s3)c1=O)C(=O)CC(C)(C)C2` [Compound 292], the IC50 on IDH1 R132H and against IDH1 R132C was 1000 to 5000 nM throughout.
On to `CCc1cccc(CC)c1-n1c(CC)c(C(=O)NC)cc(-c2nc(-c3ccc(Cl)cc3)cs2)c1=O` [Compound 293], for which the 50% inhibitory concentration (IC50) on IDH1 R132H and against IDH1 R132C was 300 to 1000 nM throughout.
Consider `COc1ccc(OC)c(-n2c3c(cc(-c4cc(-c5ccccc5)[nH]n4)c2=O)C(=O)CC(C)(C)C3)c1` [Compound 294], for which the IC50 at IDH1 R132H is more than 20000 nM; at IDH1 R132C, 5000 to 20000 nM.
As for `CC1(C)CC(=O)c2cc(-c3nc(-c4ccc(Cl)cc4)cs3)c(=O)n(-c3ccccc3-c3ccccc3)c2C1` [Compound 295], the values for the IC50 at IDH1 R132H and against IDH1 R132C were 1000 to 5000 nM and 300 to 1000 nM, respectively.
As to `CCc1cccc(CC)c1-n1c(C)c(C(=O)NC2CCOCC2)cc(-c2nc(-c3ccc(Cl)cc3)cs2)c1=O` [Compound 296], the concentration for half-maximal inhibition (IC50) on IDH1 R132H and at IDH1 R132C was 1000 to 5000 nM in each case.
Turning to `CCc1cccc(CC)c1-n1c(CC(C)C)c(C(=O)N2CC(=O)N[C@@H](C(=O)O)C2)cc(-c2nc(-c3ccc(Cl)cc3)cs2)c1=O` [Compound 297], the IC50 against IDH1 R132H and on IDH1 R132C was 300 to 1000 nM in each case.
Regarding `CCc1cccc(CC)c1-n1c2c(cc(-c3nc(C4=CCNCC4)c(C)s3)c1=O)C(=O)CC(C)(C)C2` [Compound 298], the IC50 was more than 20000 nM at IDH1 R132H and 5000 to 20000 nM against IDH1 R132C.
The matching figures for `CCc1cccc(CC)c1-n1c2c(cc(-c3nc(-c4ccc(C)nc4)c(C)s3)c1=O)C(=O)CC(C)(C)C2` [Compound 299]: 1000 to 5000 nM and 1000 to 5000 nM.
The matching figures for `CCc1cccc(CC)c1-n1c(C)c(C(=O)N2CCNCC2)cc(-c2nc(-c3ccc(Cl)cc3)cs2)c1=O` [Compound 300]: less than 300 nM and 300 to 1000 nM.
For `CC1(C)CC(=O)c2cc(-c3nc(-c4ccc(Cl)cc4)cs3)c(=O)n(-c3ccccc3N)c2C1` [Compound 301], the half-maximal inhibitory concentration (IC50) against IDH1 R132H and against IDH1 R132C was 1000 to 5000 nM in each case.
Take `CCc1cccc(CC)c1-n1c(C)c(C(=O)NC2CCNCC2)cc(-c2nc(-c3ccc(Cl)cc3)cs2)c1=O` [Compound 302]: the IC50 on IDH1 R132H and against IDH1 R132C was 300 to 1000 nM each time.
Take `CCc1cccc(CC)c1-n1c(C)c(C(=O)NCCN)cc(-c2nc(-c3ccc(Cl)cc3)cs2)c1=O` [Compound 303]: the 50% inhibitory concentration (IC50) on IDH1 R132H lay in the range of 300 to 1000 nM; at IDH1 R132C it was 1000 to 5000 nM.
The matching figures for `CCc1cccc(CC)c1-n1c(C)c(C(=O)NCCCNC)cc(-c2nc(-c3ccc(Cl)cc3)cs2)c1=O` [Compound 304]: 1000 to 5000 nM and 300 to 1000 nM.
For `CCc1cccc(CC)c1-n1c(CC(C)C)c(C(=O)N2CCNC(C)C2)cc(-c2nc(-c3ccc(Cl)cc3)cs2)c1=O` (stereo not shown) [Compound 305] the same measures were 300 to 1000 nM and less than 300 nM.
For `COc1ccc(OC)c(-n2c3c(cc(-c4nc(-c5ccc(Cl)cc5)no4)c2=O)C(=O)CC(C)(C)C3)c1` [Compound 306] the same measures were 5000 to 20000 nM and 5000 to 20000 nM.
Turning to `CCc1cccc(CC)c1-n1c(CC(C)C)c(C(=O)N2CCNCC2)cc(-c2nc(-c3ccc(C(N)=O)cc3)c(C)s2)c1=O` [Compound 307], the IC50 against IDH1 R132H and against IDH1 R132C was 5000 to 20000 nM throughout.
For the molecule `CCc1cccc(CC)c1-n1c(C)c(C(=O)N(C)CCO)cc(-c2nc(-c3ccc(Cl)cc3)cs2)c1=O` [Compound 308], the 50% inhibitory concentration (IC50) on IDH1 R132H and against IDH1 R132C was 1000 to 5000 nM in each case.
Consider `CCc1cccc(CC)c1-n1c2c(cc(C(=O)N(C)Cc3ccc(Cl)cc3)c1=O)C(=O)CC(C)(C)C2` [Compound 309], for which the IC50 on IDH1 R132H and against IDH1 R132C was 5000 to 20000 nM throughout.
For `CCc1cccc(CC)c1-n1c(CC(C)C)c(C(=O)N2CCNCC2)cc(-c2cccc(-c3ccc(Cl)cc3)n2)c1=O` [Compound 310], the IC50 against IDH1 R132H and on IDH1 R132C was 1000 to 5000 nM throughout.
Consider `CCc1cccc(CC)c1-n1c(C)c(C(=O)NC(C)C)cc(-c2nc(-c3ccc(Cl)cc3)cs2)c1=O` [Compound 311], for which the IC50 against IDH1 R132H and against IDH1 R132C was 1000 to 5000 nM throughout.
With `CCc1cccc(CC)c1-n1c(CC(C)C)c(C(=O)N2CCCCC2CO)cc(-c2nc(-c3ccc(Cl)cc3)cs2)c1=O` (stereo not shown) [Compound 312], the IC50 lay in the range of 1000 to 5000 nM on IDH1 R132H and 300 to 1000 nM at IDH1 R132C.
As to `CCc1cccc(CC)c1-n1c(C)c(C(=O)NCC(C)C)cc(-c2nc(-c3ccc(Cl)cc3)cs2)c1=O` [Compound 313], the IC50 against IDH1 R132H was more than 20000 nM; against IDH1 R132C it was 1000 to 5000 nM.
For `CCc1cccc(CC)c1-n1c(CC(C)C)c(C(=O)N2CCNC(C(F)(F)F)C2)cc(-c2nc(-c3ccc(Cl)cc3)cs2)c1=O` (stereo not shown) [Compound 314] the same measures were 300 to 1000 nM and 300 to 1000 nM.
As for `CCc1ncc(F)cc1-n1c(C=C(C)C)c(C(=O)N2CCNCC2)cc(-c2nc(-c3ccc(C(F)(F)F)nc3)cs2)c1=O` [Compound 315], the IC50 lay within 300 to 1000 nM against IDH1 R132H and 1000 to 5000 nM against IDH1 R132C.
The matching figures for `CC(C)=Cc1c(C(=O)N2CCNCC2)cc(-c2nc(-c3ccc(Cl)cc3)cs2)c(=O)n1-c1cc(F)cnc1OC(C)C` [Compound 316]: less than 300 nM and less than 300 nM.
On to `CCc1cccc(CC)c1-n1c(-c2ccn(-c3ccccc3)n2)c(C(=O)N2CCNCC2)cc(-c2nc(-c3ccc(Cl)cc3)cs2)c1=O` [Compound 317], for which the IC50 at IDH1 R132H is 5000 to 20000 nM; against IDH1 R132C, 1000 to 5000 nM.
For the molecule `COc1ccc(F)cc1-n1c2c(cc(-c3nc(-c4ccc(Cl)cc4)cs3)c1=O)C(=O)CCC2` [Compound 318], the IC50 at IDH1 R132H and against IDH1 R132C was 1000 to 5000 nM in each case.
Turning to `COc1cccc(CN2CCN(C)CC2)c1-n1c2c(cc(-c3nc(-c4ccc(Cl)cc4)cs3)c1=O)C(=O)CC(C)(C)C2` [Compound 319], the IC50 against IDH1 R132H and on IDH1 R132C was 5000 to 20000 nM each time.
For the molecule `CCc1cccc(CC)c1-n1c(C=C(C)C)c(C(=O)N2CCC3(CCNC3)C2)cc(-c2nc(-c3ccc(Cl)cc3)cs2)c1=O` (stereo not shown) [Compound 320], the IC50 was 300 to 1000 nM on IDH1 R132H and less than 300 nM against IDH1 R132C.
As to `CCc1cccc(CC)c1-n1c(CC(C)C)c(C(=O)N2CCNCC2)cc(-c2nc(-c3ccc(OC)nc3)c(C)s2)c1=O` [Compound 322], the IC50 against IDH1 R132H and on IDH1 R132C was 300 to 1000 nM throughout.
In the case of `CCc1cccc(CC)c1-n1c(C=C(C)C)c(C(=O)N2C[C@H]3CC[C@@H](C2)N3)cc(-c2nc(-c3ccc(C(F)(F)F)cc3)cs2)c1=O` [Compound 323], the half-maximal inhibitory concentration (IC50) on IDH1 R132H and on IDH1 R132C was less than 300 nM throughout.
As to `CCc1cccc(CC)c1-n1c(C=C(C)C)c(C(=O)N2CCNC3(CC3)C2)cc(-c2nc(-c3ccc(C(F)(F)F)cc3)cs2)c1=O` [Compound 324], the IC50 against IDH1 R132H and at IDH1 R132C was less than 300 nM each time.
As to `CCOc1ncc(C)cc1-n1c(C=C(C)C)c(C(=O)N2CCNCC2)cc(-c2nc(-c3ccc(C(F)F)nc3)cs2)c1=O` [Compound 326], the 50% inhibitory concentration (IC50) on IDH1 R132H is less than 300 nM; at IDH1 R132C it was 300 to 1000 nM.
Regarding `CCc1ncc(F)cc1-n1c(C=C(C)C)c(C(=O)N2CCNCC2)cc(-c2nc(-c3ccc(C(F)(F)F)cc3)cs2)c1=O` [Compound 328], the IC50 against IDH1 R132H and on IDH1 R132C was less than 300 nM each time.
Take `CCOc1ccc(F)cc1-n1c(C=C(C)C)c(C(=O)N2CCNCC2)cc(-c2nc(-c3ccc(C(F)(F)F)cc3)cs2)c1=O` [Compound 329]: the IC50 against IDH1 R132H and on IDH1 R132C was less than 300 nM each time.
Take `CCc1ncc(C)cc1-n1c(C=C(C)C)c(C(=O)N2CCNCC2)cc(-c2nc(-c3ccc(Cl)cc3)cs2)c1=O` [Compound 330]: the IC50 against IDH1 R132H is less than 300 nM; against IDH1 R132C it was 300 to 1000 nM.
In the case of `CCOc1ncccc1-n1c(C=C(C)C)c(C(=O)N2CCNCC2)cc(-c2nc(-c3ccc(Cl)cc3)cs2)c1=O` [Compound 331], the IC50 was less than 300 nM against IDH1 R132H and 300 to 1000 nM on IDH1 R132C.
`CCc1cccc(CC)c1-n1c(C=C(C)C)c(C(=O)N2CCNCC2C(C)C)cc(-c2nc(-c3ccc(Cl)cc3)cs2)c1=O` (stereo not shown) [Compound 332]: the figures for the IC50 at IDH1 R132H and on IDH1 R132C were 300 to 1000 nM and less than 300 nM, respectively.
The matching figures for `CCc1ccc(N(C)C)cc1-n1c(C=C(C)C)c(C(=O)N2CCNCC2)cc(-c2nc(-c3ccc(Cl)cc3)cs2)c1=O` [Compound 333]: less than 300 nM and less than 300 nM.
In the case of `CCc1ncc(OC)cc1-n1c(C=C(C)C)c(C(=O)N2CCNCC2)cc(-c2nc(-c3ccc(C(F)(F)F)nc3)cs2)c1=O` [Compound 334], the values for the IC50 on IDH1 R132H and at IDH1 R132C were 300 to 1000 nM and 1000 to 5000 nM, respectively.
Regarding `CCc1cccc(CC)c1-n1c(C=C(C)C)c(C(=O)N2CCNCC2)cc(-c2nc(-c3ccc(C(F)F)cc3)cs2)c1=O` [Compound 336], the IC50 at IDH1 R132H and on IDH1 R132C was less than 300 nM each time.
For the molecule `CCc1cccc(CC)c1-n1c(C=C(C)C)c(C(=O)N2CCNC(=O)C2CC(=O)O)cc(-c2nc(-c3ccc(Cl)cc3)cs2)c1=O` (stereo not shown) [Compound 337], the IC50 on IDH1 R132H and on IDH1 R132C was less than 300 nM each time.
